According to patent US20030157715A1, “Modulation of chromosome function by chromatin remodeling agents” (priority 2000, published 2003):
Values joined by “and” are separate entries in the source; they are usually repeats but may differ in a detail not shown here. Equal entries are not always repeated.

Assays:
[1] = target: W9 probe (tandem repeats of an oligonucleotide with a 9 bp AT-tract); experiment: DNase I footprinting on probe W9; format: binding
Text: DNase I cleavage pattern in the presence of P9 and P7. Ligand concentrations are indicated at the top of each lane. The position of each of the AT-tracts is indicated by square brackets. […] This probe is composed of head-to-tail tandem repeats of an oligonucleotide with a 9 bp AT-tract.
(§1) Synthetic oligonucleotides […] and […] were hybridized to obtain the W9 probe, oligomerized by ligation and digested with BamHI and BglII to obtain different tandem repeats. The following oligonucleotides were prepared identically: GAF31 is composed of the oligonucleotides […] and […] and, BrownI of oligonucleotides […] and […]. Fragments were purified on low-melt agarose gels and then cloned into a modified pSP64 vector, cut by BamHI and BglII. End-labeling was carried out following digestion with HindIII and a fill-in reaction with Klenow DNA polymerase. The labeled plasmid was cut with PvuII and the target fragments purified from low-melting agarose gels. The 657 bp EcoR1/Hinf1 fragment of the Drosophila histone SAR was cloned into the SmaI site of the modified pSP64 plasmid. This SAR probe was end-labeled following-digestion with EcoR1, then cut with ClaI and the resulting 347 bp fragment purified from low-melting agarose gels.
(§2) All reactions were performed in a total volume of 40 μl. A polyamide stock solution or buffer (for reference lanes) was added to an assay buffer containing 20 kcpm radiolabeled DNA, affording final concentrations of 10 mM Tris-HCl (pH 7.4), 10 mM KCl, 10 MM MgCl, 5 mM CaCl2, 0.5 mM EDTA, 0.5 mM EGTA, 1 mM DTT and 0.1% digitonine. The solutions were allowed to equilibrate for at least 2 h at room temperature. Footprinting reactions were initiated by the addition of 2 μl of a DNase stock solution (containing −100 μg DNase I in buffer) and allowed to proceed for 2 min at room temperature. The reactions were stopped by addition of 10 μl of a solution containing 1.25 M NaCl, 100 mM EDTA. Next, 5 μl of a 1% SDS solution was added, followed by 2 μl of a solution containing 1 μg poly(dA-dT), 1 μg salmon sperm DNA and 10 μg glycogen and the DNA was ethanol precipitated (20 min at −20 C.). The reactions were resuspended in 4 μl of 80% formamide loading buffer, denatured 10 min at 85 C., cooled on ice and electrophoresed on 8% polyacrylamide denaturing gels (5% cross-link, 8 M urea) at 30 W for 1 h. The gels were dried and exposed o/n at −70 C.

[2] = test system: Drosophila histone SAR; experiment: DNase I footprinting on SAR probe; format: binding
Experimental: as §1, §2

[3] = test system: CACAA repeats; experiment: DNase I footprinting on CACAA repeats (Brown I probe); format: binding
Text: A drawback of this binding model, as opposed to conventional 2:1 drug to DNA complexes, is that P31 is expected to bind degenerate GC and CG base pairs, albeit with different affinity. The consensus sequence can thus be defined as SWSWWSWSWW, where S stands for a G or C and W for A or T. To evaluate binding of P31 to CACAA repeats, we used a second probe that contains two of these repeats as well as five tandem GAGAA repeats. […] Again, it is observed than this molecule binds as a 1:1 drug to DNA complex in an orientation as indicated by arrowheads (FIG. 3A). We propose that special structural features of AT-tracts and GAGAA repeats might favor 1:1 DNA to drug complexes.
as §1, with “The 657 bp EcoR1/Hinf1 fragment of the Drosophila histone SAR was cloned into the SmaI site of the modified pSP64 plasmid. This SAR probe was end-labeled following-digestion with EcoR1, then cut with ClaI and the resulting 347 bp fragment purified from low-melting agarose gels.” left out

[4] = test system: Ubx^1/+ flies; experiment: P31 fed to developing Ubx^1/+ flies; format: in vivo, Drosophila melanogaster
Text: P31 enhances haltere-to-wing transformation in heterozygous bw^D/bw; Ubx^1/+ flies: The GAGA factor is know to bind to the promoter of Ubx and to stimulate its transcription in vitro (Biggin and Tjian, 1988) The Trl locus also genetically interacts with Ubx, since Trl^13C dominantly enhances the segmental transformation observed in Ubx heterozygotes. […] We asked, does P31 also chemically mimic the genetic interaction of Ubx and Trl^13C? To address this issue, we fed P31 to two genotypes, +/+; Ubx/+ and bw^D/bw^D; Ubx^1/+. The latter genotype was obtained by crossing bw^D/bw^D; st/st females and bw^D/bw^D Ubx^1/Tm3, sb males.
The lethality of the progenies was calculated by counting the dead bodies and the total empty pupal shells. The A6 to A5 transformation was detected by bristles that form on abdominal segment A6 on males. All male adult flies obtained (˜50) were scored. Sex combs and halteres were individually inspected and photographed under the microscope (Axiophot, Zeiss) after dissecting at least 30 individuals and incubating them into 30 μl of 0.6 g/ml gum arabic; 4 g/ml chlorohydrate; 35% glycerol under a 24×24 mm coverslip as described (Ashburner, 1989). Since raising double heterozygous flies (Ubx^1/+; bw^D/+) led to lethality, we morphologically dissected eight late stage pupae after carefully removing the pupal envelope.

| SMILES | affinity for AT-tracts of 9 Ws (in words) [1] | better affinity for W9 than P7 ([1]; P9 versus P7, footprints on W9) | Kd ([1]; apparent binding affinity, DNase I footprinting, probe W9, read-out: Kdapp W9) | Ratio ([2]; Kdapp W9 / Kdapp SAR (SAR specificity factor)) | Kd ([2]; apparent binding affinity, DNase I footprinting, SAR probe, read-out: Kdapp SAR) | affinity for CACAA repeats relative to GAGAA repeats [3] | A6 to A5 ([4]; fly stock Ubx^1/+) | Lethality ([4]; fly stock Ubx^1/+) | Sex comb (mean) ([4]; fly stock Ubx^1/+) | Sex comb, range of teeth ([4]; fly stock Ubx^1/+) | alteration of phenotype (in words) ([4]; progeny of Ubx^1/+ flies) |
| --- | --- | --- | --- | --- | --- | --- | --- | --- | --- | --- | --- |
| CN(C)CCCNC(=O)CCNC(=O)c1cc(NC(=O)c2cc(NC(=O)c3cc(NC(=O)CCNC(=O)c4cc(NC(=O)c5cc(NC(=O)c6cccn6C)cn5C)cn4C)cn3C)cn2C)cn1C [Compound P9, PyPyPy-β-PyPyPy-β-Dp] | subnanomolar affinity | 100 fold | ~0.75 nM and 0.75 nM | 1.4 | 0.55 nM | – | – | – | – | – | – |
| CN(C)CCCNC(=O)CCNC(=O)c1nc(NC(=O)CCNC(=O)c2nc(NC(=O)CCNC(=O)c3cc(NC(=O)c4nc(NC(=O)CCNC(=O)c5nccn5C)cn4C)cn3C)cn2C)cn1C [Compound P31, Im-β-Im-Py-β-Im-β-Im-β-Dp] | – | – | – | – | – | approximately five fold lower affinity | 0% | 10% | 10.3 | 8-12 | no altered phenotype |
